Experimental data published in ChEMBL document CHEMBL1201862, “PubChem BioAssay data set” (2004).
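In this assay, cells in 96-well plates receive the compound at five concentrations for 48 hours. Endpoints are linearly interpolated between the surrounding concentrations. At the GI50, growth is halved.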 Activity calls are given as the source filed them. Rule as the data show it: active = GI50 up to about 1.1 µM and inactive = higher.

Legend:
Assay in all cases: DTP human tumour cell line panel, 48 h
HT-29 = system: HT-29
SF-268 = system: SF-268
MDA-MB-435 = system: MDA-MB-435
MOLT-4 = system: MOLT-4
UO-31 = system: UO-31
HL-60 = system: HL-60
LOX IMVI = system: LOX IMVI
OVCAR-8 = system: OVCAR-8
OVCAR-5 = system: OVCAR-5
COLO 205 = system: COLO 205
A498 = system: A498
SK-MEL-28 = system: SK-MEL-28
UACC-257 = system: UACC-257
NCI/ADR-RES = system: NCI/ADR-RES
MCF7 = system: MCF7
SW-620 = system: SW-620
OVCAR-4 = system: OVCAR-4
SK-MEL-5 = system: SK-MEL-5
NCI-H226 = system: NCI-H226
HOP-92 = system: HOP-92
DU-145 = system: DU-145
T47D = system: T47D
CCRF-CEM = system: CCRF-CEM
HOP-62 = system: HOP-62
IGROV-1 = system: IGROV-1
PC-3 = system: PC-3
K562 = system: K562
RXF 393 = system: RXF 393
786-0 = system: 786-0
TK-10 = system: TK-10
SN12C = system: SN12C
SK-MEL-2 = system: SK-MEL-2
BT-549 = system: BT-549
UACC-62 = system: UACC-62
HCT-15 = system: HCT-15
M14 = system: M14
HCC 2998 = system: HCC 2998
RPMI-8226 = system: RPMI-8226
ACHN = system: ACHN
MDA-N = system: MDA-N
EKVX = system: EKVX
NCI-H23 = system: NCI-H23
HCT-116 = system: HCT-116
Hs-578T = system: Hs-578T
KM12 = system: KM12
A549 = system: A549
U-251 = system: U-251
SNB-75 = system: SNB-75
SK-OV-3 = system: SK-OV-3
CAKI-1 = system: CAKI-1
OVCAR-3 = system: OVCAR-3
SF-295 = system: SF-295
SNB-19 = system: SNB-19
NCI-H460 = system: NCI-H460
SR = system: SR
NCI-H522 = system: NCI-H522

SMILES: Cc1ccsc1/C=N/Nc1ccc2ccccc2n1
- GI50 (HT-29): 12.5 µM (inactive)
- GI50 (SF-268): 32.1 µM (inactive)
- GI50 (MDA-MB-435): 56.5 µM (inactive)
- GI50 (MOLT-4): 8.04 µM (inactive)
- GI50 (UO-31): 26.7 µM (inactive)
- GI50 (HL-60): 11.8 µM (inactive)
- GI50 (LOX IMVI): 24.2 µM (inactive)
- GI50 (OVCAR-8): 41.4 µM (inactive)
- GI50 (OVCAR-5): > 100 µM (inactive)
- GI50 (COLO 205): 27.7 µM (inactive)
- GI50 (A498): 7.76 µM (inactive)
- GI50 (SK-MEL-28): 80.4 µM (inactive)
- GI50 (UACC-257): 6.12 µM (inactive)
- GI50 (NCI/ADR-RES): 30.5 µM (inactive)
- GI50 (MCF7): 11.4 µM (inactive)
- GI50 (SW-620): 85.1 µM (inactive)
- GI50 (OVCAR-4): 29.7 µM (inactive)
- GI50 (SK-MEL-5): 3.4 µM (inactive)
- GI50 (NCI-H226): 35.9 µM (inactive)
- GI50 (HOP-92): 17.9 µM (inactive)
- GI50 (DU-145): 48.9 µM (inactive)
- GI50 (T47D): > 100 µM (inactive)
- GI50 (CCRF-CEM): 27.5 µM (inactive)
- GI50 (HOP-62): 19.8 µM (inactive)
- GI50 (IGROV-1): 8.26 µM (inactive)
- GI50 (PC-3): 19.6 µM (inactive)
- GI50 (K562): 59.8 µM (inactive)
- GI50 (RXF 393): 30.5 µM (inactive)
- GI50 (786-0): 30.8 µM (inactive)
- GI50 (TK-10): 19.9 µM (inactive)
- GI50 (SN12C): > 100 µM (inactive)
- GI50 (SK-MEL-2): 25.2 µM (inactive)
- GI50 (BT-549): 34.4 µM (inactive)
- GI50 (UACC-62): 25.1 µM (inactive)
- GI50 (HCT-15): 24.8 µM
- GI50 (M14): 29.1 µM (inactive)
- GI50 (HCC 2998): 24.1 µM (inactive)
- GI50 (RPMI-8226): 48.8 µM (inactive)
- GI50 (ACHN): 15.1 µM (inactive)
- GI50 (MDA-N): 43.4 µM (inactive)
- GI50 (EKVX): 20.3 µM (inactive)
- GI50 (NCI-H23): 51.1 µM (inactive)
- GI50 (HCT-116): 28.1 µM (inactive)
- GI50 (Hs-578T): 37.7 µM (inactive)
- GI50 (KM12): 32.1 µM (inactive)
- GI50 (A549): 7.43 µM (inactive)
- GI50 (U-251): 49 µM (inactive)
- GI50 (SNB-75): 32.9 µM (inactive)
- GI50 (SK-OV-3): 16.5 µM (inactive)
- GI50 (CAKI-1): 17.5 µM (inactive)
- GI50 (OVCAR-3): 10.4 µM (inactive)
- GI50 (SF-295): 11.1 µM (inactive)
- GI50 (SNB-19): 39.4 µM (inactive)

SMILES: Cn1c(=O)c2c(nc3n2CCCC(=O)N3CC(O)CCl)n(C)c1=O (centres undefined)
- GI50 (HT-29): > 100 µM (inactive)
- GI50 (SF-268): > 100 µM (inactive)
- GI50 (NCI-H460): > 100 µM (inactive)
- GI50 (MDA-MB-435): > 100 µM (inactive)
- GI50 (MOLT-4): > 100 µM (inactive)
- GI50 (UO-31): > 100 µM (inactive)
- GI50 (SR): 50.1 µM (inactive)
- GI50 (HL-60): > 100 µM (inactive)
- GI50 (LOX IMVI): > 100 µM (inactive)
- GI50 (OVCAR-8): > 100 µM (inactive)
- GI50 (OVCAR-5): > 100 µM (inactive)
- GI50 (COLO 205): > 100 µM (inactive)
- GI50 (A498): > 100 µM (inactive)
- GI50 (SK-MEL-28): > 100 µM (inactive)
- GI50 (UACC-257): > 100 µM (inactive)
- GI50 (NCI/ADR-RES): > 100 µM (inactive)
- GI50 (MCF7): > 100 µM (inactive)
- GI50 (SW-620): > 100 µM (inactive)
- GI50 (OVCAR-4): > 100 µM (inactive)
- GI50 (SK-MEL-5): > 100 µM (inactive)
- GI50 (NCI-H226): > 100 µM (inactive)
- GI50 (HOP-92): > 100 µM (inactive)
- GI50 (DU-145): > 100 µM (inactive)
- GI50 (T47D): > 100 µM (inactive)
- GI50 (CCRF-CEM): > 100 µM (inactive)
- GI50 (HOP-62): > 100 µM (inactive)
- GI50 (IGROV-1): > 100 µM (inactive)
- GI50 (PC-3): > 100 µM (inactive)
- GI50 (K562): > 100 µM (inactive)
- GI50 (RXF 393): > 100 µM (inactive)
- GI50 (786-0): > 100 µM (inactive)
- GI50 (TK-10): > 100 µM (inactive)
- GI50 (SN12C): > 100 µM (inactive)
- GI50 (SK-MEL-2): > 100 µM (inactive)
- GI50 (BT-549): > 100 µM (inactive)
- GI50 (UACC-62): > 100 µM (inactive)
- GI50 (HCT-15): > 100 µM
- GI50 (M14): > 100 µM (inactive)
- GI50 (HCC 2998): > 100 µM (inactive)
- GI50 (RPMI-8226): > 100 µM (inactive)
- GI50 (ACHN): > 100 µM (inactive)
- GI50 (MDA-N): > 100 µM (inactive)
- GI50 (EKVX): > 100 µM (inactive)
- GI50 (NCI-H23): > 100 µM (inactive)
- GI50 (HCT-116): > 100 µM (inactive)
- GI50 (Hs-578T): > 100 µM (inactive)
- GI50 (KM12): > 100 µM (inactive)
- GI50 (A549): > 100 µM (inactive)
- GI50 (U-251): > 100 µM (inactive)
- GI50 (SNB-75): > 100 µM (inactive)
- GI50 (SK-OV-3): > 100 µM (inactive)
- GI50 (CAKI-1): > 100 µM (inactive)
- GI50 (OVCAR-3): > 100 µM (inactive)
- GI50 (SF-295): > 100 µM (inactive)
- GI50 (SNB-19): > 100 µM (inactive)
- GI50 (NCI-H522): > 100 µM (inactive)
